Data: patent publication US20100292233A1, “DIHYDRO-1H-PYRROLO[1,2-A]INDOL-1-YL CARBOXYLIC ACID DERIVATIVES WHICH ACT AS S1P1 AGONISTS” (ARENA PHARMACEUTICALS, INC., priority 2008, published 2010)
Entries after “also recorded” stand apart in the source; their conditions may differ. Values belong to the compound of their own block, whether it stands above or below them.

Key:
[1] = target: T1, S1P1 receptor (Homo sapiens, UniProt P21453); assay: HTRF assay for direct cAMP measurement (S1P1 receptor agonism); format: cell-based; settings: recombinant CHO-K1 cells stably transfected with S1P1 receptor; decrease of cAMP
T1 construct: expressed in transfected cells; host or cells: CHO-K1 (ATCC CCL-61)
Description: Compounds were screened for S1P1 receptor agonism (e.g., human S1P1 receptor) using the HTRF® assay for direct cAMP measurement (Gabriel et al, ASSAY and Drug Development Technologies, 1:291-303, 2003) and recombinant CHO-K1 cells stably transfected with S1P1 receptor. CHO-K1 cells were obtained from ATCC® (Manassas, Va.; Catalog #CCL-61). An agonist of the S1P1 receptor was detected in the HTRF® assay for direct cAMP measurement as a compound which decreased cAMP concentration. The HTRF® assay also was used to determine EC50 values for S1P1 receptor agonists.
Principle of the assay: The HTRF® assay kit was purchased from Cisbio-US, Inc. (Bedford, Mass.; Catalog #62AM4PEC). The HTRF® assay supported by the kit is a competitive immunoassay between endogenous cAMP produced by the CHO-K1 cells and tracer cAMP labeled with the dye d2. The tracer binding is visualized by a monoclonal anti-cAMP antibody labeled with Cryptate. The specific signal (i.e., fluorescence resonance energy transfer, FRET) is inversely proportional to the concentration of unlabeled cAMP in the standard or sample.
Standard curve: The fluorescence ratio (665 nm/620 nm) of the standards (0.17 to 712 nM cAMP) included in the assay was calculated and used to generate a cAMP standard curve according to the kit manufacturer's instructions. The fluorescence ratio of the samples (test compound or compound buffer) was calculated and used to deduce respective cAMP concentrations by reference to the cAMP standard curve.
Setup of the assay: The HTRF® assay was carried out using a two-step protocol essentially according to the kit manufacturer's instructions, in 20 μl total volume per well, 384-well plate format (ProxiPlates; PerkinElmer, Fremont, Calif.; catalog #6008280). To each of the experimental wells was transferred 1500 recombinant CHO-K1 cells in 5 μl phosphate buffered saline containing calcium chloride and magnesium chloride (“PBS+”; Invitrogen, Carlsbad, Calif.; catalog #14040) supplemented with IBMX (250 μM) and rolipram (20 μM) (phosphodiesterase inhibitors; Sigma-Aldrich, St. Louis, Mo.; catalog #I5879 and catalog #R6520, respectively), followed by test compound in 5 μl compound buffer (PBS+ supplemented with […] NKH477 (water-soluble forskolin derivative; SignaGen Laboratories, Gaithersburg, Md.; catalog #PKI-NKH477-010)) or 5 μl compound buffer. The plate was then incubated at room temperature for 1 hour. To each well was then added 5 μl cAMP-d2 conjugate in lysis buffer and 5 μl Cryptate conjugate in lysis buffer according to the kit manufacturer's instructions. The plate was then further incubated at room temperature for 1 hour, after which the assay plate was read.
Assay readout: HTRF® readout was accomplished using a PHERAstar (BMG LABTECH Inc., Durham, N.C.) or EnVision™ (PerkinElmer, Fremont, Calif.) microplate reader.

[2] = target: T2, S1P3 receptor (Homo sapiens, UniProt Q99500); assay: Cellular/functional Ca2+ assay for agonist activity on S1P3 receptor; format: cell-based; settings: human neuroblastoma cells; FIG. 1; done by Caliper LifeSciences
T2 construct: a human neuroblastoma cell line which endogenously expresses S1P3 (predominantly), S1P2 and S1P5 receptors
Experimental: Of these, S1P3 and S1P2 receptors respond to agonists, such as S1P, with an intracellular calcium increase. […] Such an assay can be performed commercially, e.g. by Caliper LifeSciences (Hopkinton, Mass.).
Assay: Compound 2 (Enantiomer 1) was assayed for agonist activity on S1P3 receptor by Caliper LifeSciences. Human neuroblastoma cells were washed and resuspended in physiological buffer. The cells were then loaded with dye that measures intracellular calcium. S1P was used as a reference agonist. Compound 2 (Enantiomer 1) was included in the assay as a test compound. After addition of […] or Compound 2 (Enantiomer 1), fluorescence was measured at 485 nm excitation/525 nm emission every 2 sec for at least 60 sec. Calcium ionophore A23187 was then added as an internal positive control.

[3] = tested on: BALB/c mice; assay: Mouse peripheral lymphocyte lowering (PLL) assay; format: in vivo; settings: 1 mg/kg i.v., 5 hours post dose, FIG. 2
Experimental: Animals: Male BALB/c mice (6 to 7 weeks of age at start of study) (Charles River Laboratories, Wilmington, Mass.) were housed four per cage and maintained in a humidity—(40-60%) and temperature—(68-72° F.) controlled facility on a 12 hr:12 hr light/dark cycle (lights on at 6:30 am) with free access to food (Harlan Teklad, Orange, Calif., Rodent Diet 8604) and water. Mice were allowed one week of habituation to the animal facility before testing.
PLL Assay: Mice were administered via i.v. one of the following: vehicle (100% PEG400) or 1 mg/kg Compound 1 in vehicle, in a total volume of 5 mL/kg. Peripheral blood samples were collected at 5 hours post dose. The mice were anesthetized with isoflurane and bled retro-orbitally (300 μL) into 1.5 ml EDTA tubes. A complete […] (CBC) (including lymphocyte count) was obtained using CELL-DYN® 3700 (Abbott Laboratories, Abbott Park, Ill.). Results are presented in FIG. 2, in which the peripheral blood lymphocyte (PBL) count is shown for the 5 hour group.

[4] = attributed to agonism of the S1P3 receptor; cited from earlier work
[5] = short-term high dose; cited from earlier work
[6] = tested on: patients with multiple sclerosis; settings: Phase II, relapsing-remitting multiple sclerosis; cited from earlier work
[7] = tested on: mice; settings: oral administration to mice; cited from earlier work
[8] = tested on: C57BL/6 mice; settings: prophylactic oral administration, 1 mg/kg, three times a week; cited from earlier work

T2 sequence (Q99500 whole entry): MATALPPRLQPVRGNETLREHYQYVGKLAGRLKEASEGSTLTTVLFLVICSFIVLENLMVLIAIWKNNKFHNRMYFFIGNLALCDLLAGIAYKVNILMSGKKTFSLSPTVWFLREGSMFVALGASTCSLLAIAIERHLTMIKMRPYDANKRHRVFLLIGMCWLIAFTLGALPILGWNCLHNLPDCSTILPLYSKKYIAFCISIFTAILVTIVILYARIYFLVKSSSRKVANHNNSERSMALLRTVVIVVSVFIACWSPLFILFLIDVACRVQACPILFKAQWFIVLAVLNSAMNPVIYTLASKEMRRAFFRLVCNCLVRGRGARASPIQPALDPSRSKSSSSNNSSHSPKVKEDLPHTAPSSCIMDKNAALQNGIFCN
T1 sequence (P21453 whole entry): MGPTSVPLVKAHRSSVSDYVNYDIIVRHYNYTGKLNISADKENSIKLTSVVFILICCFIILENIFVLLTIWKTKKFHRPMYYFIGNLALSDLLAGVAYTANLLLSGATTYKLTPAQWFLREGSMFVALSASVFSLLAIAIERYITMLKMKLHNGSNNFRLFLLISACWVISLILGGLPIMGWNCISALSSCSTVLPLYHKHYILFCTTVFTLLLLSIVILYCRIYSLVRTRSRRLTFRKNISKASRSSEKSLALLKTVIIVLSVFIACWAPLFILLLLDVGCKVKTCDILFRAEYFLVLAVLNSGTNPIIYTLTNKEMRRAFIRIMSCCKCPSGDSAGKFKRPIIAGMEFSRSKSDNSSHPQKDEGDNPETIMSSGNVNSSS

EC50 [1]: 10 nM
Compound: N#Cc1cc(OC(F)(F)F)cc(-c2nc(-c3ccc4c(c3)cc3n4CCC3CC(=O)O)no2)c1 (racemic) [Compound 2, 2-(7-(5-(3-Cyano-5-(trifluoromethoxy)phenyl)-1,2,4-oxadiazol-3-yl)-2,3-dihydro-1H-pyrrolo[1,2-a]indol-1-yl)acetic Acid]

Compound: N#Cc1cc(OC(F)(F)F)cc(-c2nc(-c3ccc4c(c3)cc3n4CCC3CC(=O)O)no2)c1 (single isomer, unassigned) [Compound 2 (Enantiomer 1), 2-(7-(5-(3-Cyano-5-(trifluoromethoxy)phenyl)-1,2,4-oxadiazol-3-yl)-2,3-dihydro-1H-pyrrolo[1,2-a]indol-1-yl)acetic Acid]
agonist activity on S1P3 receptor (intracellular calcium) [2]: substantially little to no activity; also recorded: no or substantially no agonist activity

EC50 [1]: 7.2 nM
Compound: O=C(O)CC1CCn2c1cc1cc(-c3noc(-c4cc(C(F)(F)F)cc(C(F)(F)F)c4)n3)ccc12 (stereo not shown) [Compound 1, 2-(7-(5-(3,5-Bis(trifluoromethyl)phenyl)-1,2,4-oxadiazol-3-yl)-2,3-dihydro-1H-pyrrolo[1,2-a]indol-1-yl)acetic Acid]
peripheral lymphocyte lowering (peripheral blood lymphocyte count vs vehicle) [3]: exhibited activity for inducing peripheral lymphocyte lowering

EC50 [1]: 41 nM
Compound: O=C(O)CC1CCn2c1cc1cc(-c3noc(-c4ccc5c(c4)OC(F)(F)O5)n3)ccc12 (stereo not shown) [Compound 8, 2-(7-(5-(2,2-Difluorobenzo[d][1,3]dioxol-5-yl)-1,2,4-oxadiazol-3-yl)-2,3-dihydro-1H-pyrrolo[1,2-a]indol-1-yl)acetic Acid]

EC50 [1]: 6.3 nM
Compound: N#Cc1cc(-c2nc(-c3ccc4c(c3)cc3n4CCC3CC(=O)O)no2)ccc1OCC(F)(F)F (stereo not shown) [Compound 15, 2-(7-(5-(3-Cyano-4-(2,2,2-trifluoroethoxy)phenyl)-1,2,4-oxadiazol-3-yl)-2,3-dihydro-1H-pyrrolo[1,2-a]indol-1-yl)acetic Acid]

EC50 [1]: 13 nM
Compound: O=C(O)CC1CCn2c1cc1cc(-c3noc(-c4cc(Br)cc(OC(F)(F)F)c4)n3)ccc12 (stereo not shown) [Compound 18, 2-(7-(5-(3-Bromo-5-(trifluoromethoxy)phenyl)-1,2,4-oxadiazol-3-yl)-2,3-dihydro-1H-pyrrolo[1,2-a]indol-1-yl)acetic Acid]

Compound: CNc1ccc2oc(C[C@H]3O[C@@]4(CC[C@H]3C)O[C@H]([C@H](C)C(=O)c3ccc[nH]3)[C@H](C)C[C@H]4C)nc2c1C(=O)O [Compound A23187, reference compound]
agonist activity on S1P3 receptor (intracellular calcium) [2]: pronounced agonist activity

Compound: CCCCCCCCc1ccc(CCC(N)(CO)CO)cc1 [FTY720]
adverse event in clinical trials [4]: transient asymptomatic bradycardia
ocular infiltrates [5]: rapidly reduced ocular infiltrates
MRI lesions and clinical disease activity [6]: reduce the number of lesions detected by magnetic resonance imaging (MRI) and clinical disease activity
VEGF-induced vascular permeability [7]: potently blocked VEGF-induced vascular permeability
development of EAMG [8]: completely prevented the development of experimental autoimmune myasthenia gravis (EAMG)
